Results reported in paper PMC9888311, “Neonatal NET-Inhibitory Factor improves survival in the cecal ligation and puncture model of polymicrobial sepsis by inhibiting neutrophil extracellular traps” (Frontiers in Immunology, 2023).
Where no end group is shown, it is not given here.

Columns and labels:
[1] = test system: CLP model of polymicrobial sepsis; assay: Survival over 6 days after cecal ligation and puncture (CLP); type: in vivo, mouse (outbred Swiss Webster)
Method: Mice were anesthetized with 3% isoflurane in an induction chamber, and anesthesia was maintained by use of inhalation via nose cone. Sepsis was induced by cecal ligation and puncture (CLP) as previously described ([30], [31]). […] The animals received subcutaneous sterile isotonic saline (0.5 mL) for fluid resuscitation immediately after surgery. Sham-operated mice were subjected to identical procedures, except that ligation and puncture of the cecum was omitted. Survival of mice subjected to CLP or sham injury was determined daily for 6 days. Twenty-four and 48 hours after CLP, all animals were scored for clinical illness severity as previously described ([32]) by an examiner blinded to treatment arm. In this assessment, higher scores reflect increased illness severity with non-surviving mice receiving a score of 10. These mice were included in the statistical analysis. In additional experiments, mature Swiss-webster mice were treated with sham surgery or CLP procedure. […]
For our survival studies, animals were randomly assigned to one of five groups: (a) sham-operated group (Sham); (b) DMSO vehicle treatment group (CLP + DMSO (0.003%/5% Dextrose/H2O, IV); (c) nNIF treatment group ([…], 0.003%/5% Dextrose/H2O, IV); (d) scrambled peptide control treatment group (CLP + nNIF-SCR, 1 mg/kg, 0.003%/5% Dextrose/H2O, IV); and (e) antibiotic treatment group ([…]). Groups a-d received their respective treatment at 4 and 10 hours after CLP. Group e received two doses of meropenem at 4 and 10 hours after CLP and then daily injections for 6 days. In another set of survival studies, mice were treated with nNIF or nNIF-SCR (1 mg/kg, IV) 4 and 10 hours after CLP in combination therapy with a suboptimal dose of meropenem (8 mg/kg, IP) also given 4 and 10 hours after CLP and then once daily. […] Both aliquots of blood and peritoneal fluid were used for the following analyses: leukocyte cell count and differential, bacterial CFU studies, NET quantitation using MPO-DNA complex ELISA, live cell imaging, and multiplex cytokine profiling with specific ELISA confirmation.

[2] = test system: IL-6; assay: Peritoneal fluid cytokine multiplex array, IL-6; type: in vivo, mouse (outbred Swiss Webster); conditions: 24 h after CLP; nNIF 1 mg/kg at 4 and 10 hours; N=5-9
Method: (§1) Peritoneal fluid cytokines were analyzed using a mouse Cytokine/Chemokine Panel I Multiplex Array (Millipore Sigma catalog# HCYTMAG60-PMX41) according to manufacturer’s instructions on a Luminex 200 instrument. Bacterial counts in whole blood and peritoneal lavage were determined 24 hours after CLP. Briefly, peritoneal fluid and blood samples were collected, serially diluted, plated on LB-agar dishes, and incubated at 37°C for 24 hours. The number of bacterial colonies was counted and expressed as CFU/mL.

[3] = test system: CLP model of polymicrobial sepsis; assay: Blinded clinical illness severity score after CLP; type: in vivo, mouse (outbred Swiss Webster); conditions: compared to vehicle control
Method: Mice were anesthetized with 3% isoflurane in an induction chamber, and anesthesia was maintained by use of inhalation via nose cone. Sepsis was induced by cecal ligation and puncture (CLP) as previously described ([30], [31]). […] The animals received subcutaneous sterile isotonic saline (0.5 mL) for fluid resuscitation immediately after surgery. Sham-operated mice were subjected to identical procedures, except that ligation and puncture of the cecum was omitted. Survival of mice subjected to CLP or sham injury was determined daily for 6 days. Twenty-four and 48 hours after CLP, all animals were scored for clinical illness severity as previously described ([32]) by an examiner blinded to treatment arm. In this assessment, higher scores reflect increased illness severity with non-surviving mice receiving a score of 10. These mice were included in the statistical analysis. In additional experiments, mature Swiss-webster mice were treated with sham surgery or CLP procedure. At 4 hours after surgery, mice underwent blinded clinical illness severity assessment, measurement of body weight and temperature, peritoneal fluid and whole blood neutrophil counts, whole blood platelet counts, and plasma creatinine level determination.

[4] = test system: neutrophils; conditions: neutrophils exposed to nNIF; cited from earlier work
From the text: When considering the low DNA staining on confocal imaging of peritoneal leukocytes, it may be that the NET inhibition contributes to decreased endothelial dysfunction ([48]) and prevents immunothrombosis ([22]) which then leads to decreased inflammation. Alternatively, or in combination, the lack of NETs may lead to decreased opportunities to capture bacteria and thereby limit the chance that circulating PMNs will recognize and become acti ...

[5] = test system: whole blood leukocytes; assay: Whole blood WBC and neutrophil counts (flow cytometry); type: in vivo, mouse (outbred Swiss Webster); conditions: 24 hours after CLP; nNIF 1 mg/kg IV at 4 and 10 hours after CLP; N=3-5
Method: (§2) Twenty-four hours after CLP or sham surgery, total white blood cell and differential neutrophil counts were determined both in whole blood samples collected from orbital vein using heparinized capillaries tubes and peritoneal fluid by washing with 3 mL of PBS, respectively. Then, samples were incubated with CD45 APC-Cy7 (Biolegend), CD11b PE-Cy7 (EBioscience), Ly6G BV510 (Biolegend), and CD16/CD32 (Fc-block, EBioscience) for 30 minutes at 37 °C. Thirty minutes later, cells were washed, fixed, and ran on a Beckman Coulter Cytoflex located in the University of Utah Flow Cytometry Core.

[6] = single dose 10 mg/kg, retro-orbital venous injection; LC/MS/MS; N=2-3 mice/time point
Method: PK plasma sample generation – Mature Swiss-Webster mice were inject ed with nNIF (10 mg/kg,
0.003% DMSO in PBS) via retro-orbital venous injection. Blood samples were obtain ed via
cheek bleed and cardiac puncture at 5, 15, 30, and 45 minutes, and at 1, 4, 8, 12, 24, and 48 hours
after nNIF injection. Only three blood samples were drawn from each indiv idual mouse, and
multiple mice were used to generate 2 -3 plasma samples per timepoint for PK analysis. Blood
samples were collected i n heparin coated capillary tubes, centrifuged at 1000 rpm for 10 minutes,
and snap-frozen in liquid nitrogen. Plasma samples were kept frozen at -80°C until analysis.
Mouse plasma PK quantitative bioanalysis – Flash -frozen mouse samples were thawed on ice
and spiked with 100 nM nNIF-H; precipitated with five volumes of 90% acetonitrile, 1% acetic
acid, and 0.1% formic acid in water; and filtered through a Phree Phosphol ipid Removal
Extraction Plate (Pheno menex). Standards with known concent rations of nNIF (100 pM to 25
μM) and nNIF-H (100 n M) spiked into mouse plasma were p repared using the same methods.
Supernatants were an alyzed by LC/MS/MS on an ExionLC UHPLC system coupled to a QTRAP […]
positive-ion mode. Mass transitions (m/z) used for quantitation were 846.9/ 976.1 and
determined from the nNIF/nNIF-H peak area ratio in extracted-ion chromat ograms compared […]

[7] = test system: peritoneal fluid leukocytes; assay: Peritoneal fluid WBC and neutrophil counts (flow cytometry); type: in vivo, mouse (outbred Swiss Webster); conditions: 24 hours after CLP; nNIF 1 mg/kg IV at 4 and 10 hours after CLP; N=5-9
Method: as §2

[8] = test system: IL-10; assay: Peritoneal fluid cytokine multiplex array, IL-10; type: in vivo, mouse (outbred Swiss Webster); conditions: 24 h after CLP; nNIF 1 mg/kg at 4 and 10 hours; N=5-9
Method: as §1

[9] = test system: TNF-α; assay: Peritoneal fluid cytokine multiplex array, TNF-α; type: in vivo, mouse (outbred Swiss Webster); conditions: 24 h after CLP; nNIF 1 mg/kg at 4 and 10 hours; compared to all other treatment groups; N=5-9
Method: as §1

[10] = nNIF 1 mg/kg IV at 4 and 10 hours after CLP

| Molecule | 6-day survival ([1]; sub-optimal meropenem 8 mg/kg IP at 4 and 10 hours after CLP then once daily) [%] | IL-6 level in peritoneal fluid [2] | illness severity score at 48 hours ([3]; nNIF 0.5 mg/kg IV at 4 and 10 hours after CLP) | illness severity score at 24 hours [3, 10] | illness severity score at 48 hours [3, 10] | neutrophil ability to generate reactive-oxygen species and phagocytize E. coli bioparticles [4] | whole blood white blood cell and neutrophil counts [5] | 6-day survival ([1]; nNIF 0.1 mg/kg IV, 2 doses at 4 and 10 hours after CLP, N=10, vehicle (DMSO) control 0%) [%] | 6-day survival ([1]; nNIF 0.5 mg/kg IV, 2 doses at 4 and 10 hours after CLP, N=10, vehicle (DMSO) control 0%) [%] | nNIF plasma concentration-time course [6] | peritoneal WBC and neutrophil counts [7] | IL-10 level in peritoneal fluid [8] | TNF-α level in peritoneal fluid [9] |
| --- | --- | --- | --- | --- | --- | --- | --- | --- | --- | --- | --- | --- | --- |
| C[C@@H](O)[C@H]1C(=O)N2C(C(=O)O)=C(S[C@@H]3CN[C@H](C(=O)N(C)C)C3)[C@H](C)[C@H]12 [meropenem, reference compound] | 40 | – | – | – | – | – | – | – | – | – | – | – | – |
| KFNKPFVFLMIEQNTKSPLFMGKVVNPTQ-OH [nNIF, neonatal NET-Inhibitory Factor] | – | decreased compared to meropenem treated mice but not compared to the nNIF-SCR treatment group | improvement in the illness severity scores | improvement in the illness severity scores | improvement in the illness severity scores | still maintain their ability | without affecting white blood cell or neutrophil counts | 30 | 70 | initial rapid decrease in nNIF plasma concentrations followed by a slower rate of decay | without altering peritoneal WBC and neutrophil counts | lack of an nNIF-associated alteration in IL-10 levels | decreased TNF-α levels in peritoneal fluid |
